In one test the target is T1, S1P3 receptor (Homo sapiens, UniProt Q99500).
T1 construct: expressed in transfected cells; host or cells: HEK293 T cells (crude microsomal membranes)
As to the kind of experiment: GTP[γ-35S] binding assay, HEK293 T membranes, S1P3 control. The test is classed as biochemical. The note with it: cells transfected with S1P3, negative control, FIG. 59D. On the procedure:
(§1) OMPT also enhances GTP [γ-^35S] binding in the cell membrane of HEK293 T cells expressing LPA3. The procedures for these GTP [γ-^35S] binding assays involve co-transfection of HEK293 T cells with expression vectors encoding one of the receptors for LPA (LPA1, LPA2, or LPA3) or S1P (S1P3/Edg3) by calcium phosphate precipitation, together with plasmids encoding three G proteins (rat Gi2α, cow β1, and cow γ2). After about 48 hours, cells were harvested and crude microsomal membranes were prepared. Membranes containing about 5 μg of protein were incubated in 0.1 ml of GTP-binding buffer (50 mM Hepes, 100 mM NaCl, 10 mM MgCl2, pH7.5) having 5 μg of saponin, 0.1% fatty acid-free BSA, 10 μM GDP, 0.1 nM GTP[γ-^35S] (1200 Ci/mmole) together with indicated concentrations of LPA or OMPT for about 30 min at 30° C. Membranes were collected using a 96-well Brandel Cell Harvester (Gaithersburg, Md.), and bound radionuclide was determined using a Packard TopCount liquid scintillation counter.

Another test has as its system ERK1/2. As to the kind of experiment: ERK1/2 (p42/p44-MAPK) phosphorylation immunoblot in prostate cancer cells. The test is classed as cell-based, human. The note with it: PC-3 and DU145 cells. On the procedure:
(§2) The cells were then lysed in SDA sample buffer or ice-cold X-100 lysis buffer (1% Triton X-100, 50 mM HEPES [pH7.4], 150 mM NaCl, 1.5 mM MgCl2, 1 mM EGTA, 10% glycerol, 100 mM NaF, 10 mM Na pyrophosphate, and 1 mM aprotinin). Total cellular protein was resolved by SDS/PAGE, transferred to immobilon [poly (vinylidene difluoride)], and immunoblotted with antibodies following the protocols provided by manufactures. Immunocomplexes were visualized with an enhanced chemiluminescence detection kit (Amersham Pharmacia) using horseradish peroxidase-conjugated secondary antibodies (Bio-Rad).

The subject of test [1] is PC-3 cells. The test can be described thus: cellular proliferation and growth factor withdrawal-induced apoptosis. It counts as cell-based, human.
For test [2], the target named is T2, LPA1 receptor (Homo sapiens, UniProt Q92633). As to the kind of experiment: HA-Erk1 phosphorylation in HEK 293 T cells transfected with LPA1. The test is classed as cell-based. Further details: FLAG; expressed in transfected cells; host or cells: HEK 293 T cells. The note with it: LPA1 transfected HEK 293 T; 0.01, 0.1, or 1 μM. The source says: We have also tested kinase activation by the LPA3 receptor subtype using OMPT as a tool. We determined whether activation of the LPA3 receptor by OMPT can be linked to ERK activation (related to MAP kinase signaling pathway) in mammalian cells, HEK 293 T cells, by co-transfecting hemagglutinin (HA)-tagged Erk1 (HA-Erk1) with either a control vector or an expression vector having LPA1, LPA2, or LPA3. […] There is no phosphorylation of HA-Erk1 at lower concentration of LPA or OMPT in the absence of LPA receptors. […] Thus, the data confirmed that OMPT, an LPA derivative, is a selective agonist for LPA3 receptor subtype, capable of inducing MAPK activation.

In test [3] the test system is vasodilator-stimulated protein (VASP). As to the kind of experiment: VASP phosphorylation in PC-3 cells. It counts as cell-based, human. The procedure:
as §2
To determine the mechanisms regulating LPA-induced cell migration, actin filament binding proteins that link receptor signaling to lamellipodia formation were evaluated.

For another test, the system named is PKA. As to the kind of experiment: PKA activation in PC-3 cells. It counts as cell-based, human.
In test [4] the target is T2, LPA1 receptor. As to the kind of experiment: GTP[γ-35S] binding assay, HEK293 T membranes, LPA1. The test is classed as biochemical. Further details: expressed in transfected cells; host or cells: HEK293 T cells (crude microsomal membranes). The note with it: HEK293 transfected with LPA1, FIG. 59A. The procedure: as §1
(GTPγS resists hydrolysis and so accumulates on activated G proteins.)

The target in another test is LPA2 receptor (Homo sapiens, UniProt Q9HBW0). The test can be described thus: GTP[γ-35S] binding assay, HEK293 T membranes, LPA2. The test is classed as biochemical. Further details: expressed in transfected cells; host or cells: HEK293 T cells (crude microsomal membranes). The note with it: HEK293 transfected with LPA2, FIG. 59B. The procedure:
as §1

The target of test [5] is T2, LPA1 receptor. The test can be described thus: calcium mobilization in Sf9 insect cells expressing LPA1. It counts as cell-based. (Calcium assays in cells follow changes in intracellular calcium, usually with a dye or a luminescent sensor.)
Test [6] has as its system PC-3 cells. As to the kind of experiment: calcium mobilization assay in androgen insensitive prostate cancer PC-3 cells. The test is classed as cell-based, human. The note with it: Homo sapiens. The procedure:
The procedures for these calcium mobilization assays are as followed: OVCAR3 cells and PC-3 cells were cultured in RPMI 1640 medium with 10% FBS (fetal bovine serum). HT29 cells were cultured in DMEM (high glucose) medium with 10% FBS. All cells were cultured at about 37° C. in a humidified atmosphere with 5% CO2. After starvation in serum-free medium for about 12-24 hours, cells were harvested and loaded with about 1 μM of Indo-1 AM in serum-free medium for about 45 min at 37° C. Cells were washed in PBS and resuspended at 2×10^6 cells/ml in a [Ca^2+]i assay buffer (Sodium chloride, NaCl, about 140 mM, potassium chloride, KCl, about 2 mM, magnesium chloride, MgCl2, about 1 mM, calcium chloride, CaCl2, about 2 mM, in about 25 mM HEPES buffer at pH 7.4 with about 10 mM of glucose). Cytoplasmic [Ca^2+]i was determined at an excitation wavelength of about 331 nm and an emission wavelength of 410 nm using a fluorescence spectrophotometer (Hitachi, F-4000). Approximately 3×10^6 cells were used for [Ca^2+]l determination in a stirred quartz cuvette kept at about 37° C. OMPT or 18:1 LPA was dissolved in about 0.1% BSA/PBS solution and applied immediately to the cells. To test other LPA derivatives of the invention, cells were exposed to the derivatives for about 3 minutes or for a period of various times in time course related experiments before a LPA agonist, such as 18:1 LPA, OMPT, or other LPAs was applied into the cuvette.
The concentration of calcium mobilization giving the half-maximal response (EC50) was obtained from the concentration-response curve fitted to a sigmoidal logistic equation, with the maximal calcium response set to 100% using the GraphPad Prism. Maximal response value is expressed as mean +/−s.e.m. EC50 value is expressed with 95% confidence.

A further test addresses T3, LPA3 receptor (Homo sapiens, UniProt Q9UBY5).
T3 construct: expressed in transfected cells; host or cells: HEK293 T cells (crude microsomal membranes)
The test can be described thus: GTP[γ-35S] binding assay, HEK293 T membranes, LPA3. It counts as biochemical. The note with it: HEK293 transfected with LPA3, FIG. 59C. The procedure:
as §1

Some results are limits rather than exact numbers.

T2 sequence (Q92633 whole entry): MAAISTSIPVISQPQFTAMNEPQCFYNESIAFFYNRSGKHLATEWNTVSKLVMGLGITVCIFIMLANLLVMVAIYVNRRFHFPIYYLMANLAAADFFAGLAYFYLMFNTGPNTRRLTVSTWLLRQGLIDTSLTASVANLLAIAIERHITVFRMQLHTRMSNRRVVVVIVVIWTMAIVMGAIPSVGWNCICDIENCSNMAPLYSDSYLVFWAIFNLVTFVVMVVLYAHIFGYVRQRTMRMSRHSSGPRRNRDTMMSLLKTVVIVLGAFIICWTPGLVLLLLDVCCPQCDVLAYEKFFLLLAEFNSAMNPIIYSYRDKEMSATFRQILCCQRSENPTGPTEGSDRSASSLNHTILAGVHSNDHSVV
T3 sequence (Q9UBY5 whole entry): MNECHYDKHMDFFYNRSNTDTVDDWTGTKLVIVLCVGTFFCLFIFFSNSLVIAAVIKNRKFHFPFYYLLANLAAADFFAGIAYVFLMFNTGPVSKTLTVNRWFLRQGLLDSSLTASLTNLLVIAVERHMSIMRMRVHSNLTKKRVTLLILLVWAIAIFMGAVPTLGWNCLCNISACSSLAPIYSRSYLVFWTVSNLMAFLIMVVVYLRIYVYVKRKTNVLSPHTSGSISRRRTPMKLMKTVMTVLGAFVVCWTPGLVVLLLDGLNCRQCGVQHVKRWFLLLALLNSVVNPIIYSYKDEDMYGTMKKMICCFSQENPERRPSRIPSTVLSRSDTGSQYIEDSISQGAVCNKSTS
T3 sequence (P04897 2-355 partner limits assumed): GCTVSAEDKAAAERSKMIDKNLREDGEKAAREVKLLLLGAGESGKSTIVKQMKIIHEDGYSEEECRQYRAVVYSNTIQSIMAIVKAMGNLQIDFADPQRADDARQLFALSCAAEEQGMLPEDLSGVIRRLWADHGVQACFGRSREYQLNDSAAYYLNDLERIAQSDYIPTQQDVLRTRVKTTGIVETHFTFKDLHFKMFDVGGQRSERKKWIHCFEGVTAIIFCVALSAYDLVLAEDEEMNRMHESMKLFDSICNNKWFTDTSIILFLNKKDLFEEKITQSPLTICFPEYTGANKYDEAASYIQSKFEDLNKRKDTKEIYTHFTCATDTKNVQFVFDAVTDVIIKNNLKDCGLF
T3 sequence (P62871 2-340 partner limits assumed): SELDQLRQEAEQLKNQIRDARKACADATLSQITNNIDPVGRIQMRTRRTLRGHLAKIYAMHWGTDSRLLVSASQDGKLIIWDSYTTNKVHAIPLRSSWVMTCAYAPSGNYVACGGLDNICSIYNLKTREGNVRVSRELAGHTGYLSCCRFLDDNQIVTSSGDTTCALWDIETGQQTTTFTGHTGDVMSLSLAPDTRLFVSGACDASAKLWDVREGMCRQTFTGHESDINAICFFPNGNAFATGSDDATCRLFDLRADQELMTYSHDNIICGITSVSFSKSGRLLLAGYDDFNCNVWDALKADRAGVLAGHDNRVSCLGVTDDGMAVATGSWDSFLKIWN
T3 sequence (P63212 2-68 partner limits assumed): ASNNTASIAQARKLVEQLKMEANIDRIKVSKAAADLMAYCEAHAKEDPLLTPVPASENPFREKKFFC
T1 sequence (Q99500 whole entry): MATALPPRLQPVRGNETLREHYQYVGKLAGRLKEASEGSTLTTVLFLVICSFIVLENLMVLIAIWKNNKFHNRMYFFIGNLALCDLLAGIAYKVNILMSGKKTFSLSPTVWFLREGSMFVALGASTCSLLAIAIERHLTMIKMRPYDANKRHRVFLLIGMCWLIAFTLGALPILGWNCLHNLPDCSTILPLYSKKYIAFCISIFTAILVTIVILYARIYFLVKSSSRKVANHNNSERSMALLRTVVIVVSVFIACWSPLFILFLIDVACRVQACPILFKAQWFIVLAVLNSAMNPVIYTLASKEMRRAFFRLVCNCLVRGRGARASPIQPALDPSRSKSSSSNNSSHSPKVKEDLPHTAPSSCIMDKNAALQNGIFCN
Sequence of LPA2 receptor (Q9HBW0 whole entry): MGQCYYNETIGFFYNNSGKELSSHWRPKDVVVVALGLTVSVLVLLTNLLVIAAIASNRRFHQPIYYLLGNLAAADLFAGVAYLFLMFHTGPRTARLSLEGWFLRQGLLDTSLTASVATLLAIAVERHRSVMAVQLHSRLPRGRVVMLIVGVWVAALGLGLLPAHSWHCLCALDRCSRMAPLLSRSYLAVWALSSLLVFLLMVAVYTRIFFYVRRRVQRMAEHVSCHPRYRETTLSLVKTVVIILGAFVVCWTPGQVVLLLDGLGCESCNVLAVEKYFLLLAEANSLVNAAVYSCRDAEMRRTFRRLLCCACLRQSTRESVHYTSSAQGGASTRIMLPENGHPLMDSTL

For `CCCCCCCC/C=C\CCCCCCCC(=O)OCC(COP(O)(O)=S)OC` (racemic) [OMPT, 1-oleoyl-sn2-O-methyl-rac-glycero-3-phosphothionate], the “activation in GTP[γ-35S] binding assay” value at S1P3 receptor is “does not activate”; at LPA1 receptor [4], “does not activate”; on LPA2 receptor, “does not activate”; at LPA3 receptor, “activates”. In addition, the “activation of p42/p44-MAPK” value in the test with ERK1/2 is recorded as “efficiently activates”. Also, in the test with PC-3 cells [1], the “cellular proliferation and prevention of growth factor withdrawal-induced apoptosis” value was “increase cellular proliferation and prevent growth factor withdrawal-induced apoptosis”. Besides, at LPA1 receptor [2], the HA-Erk1 phosphorylation entry is “did not increase HA-Erk1 phosphorylation”. Further, the “induction of VASP phosphorylation at Ser157 PKA site” value in [3] was “Neither OMPT nor EGF increased phosphorylation of VASP”. For the same molecule, the “activation of PKA” value with PKA is “does not”. The concentration giving a half-maximal response (EC50) (commonly the concentration at which the effect is half-maximal) at LPA1 receptor [5] is > 10000 nM; with PC-3 cells [6] it was ~117 nM.

The values above are taken from patent US20080071116A1, “Modulators of Lysophosphatidic Acid (Lpa) Signaling and the Use Thereof” (THE BOARD OF REGENTS OF THE UNIVERSITY OF TEXAS SYSTEM, priority 2004, published 2008).
